Reference: patent US20160193216A1 (Nimbus Iris, Inc., priority 2012, published 2016)
Structures can show the parent of a compound that is named as a salt.

Each compound was assayed against T1, IRAK4 (Homo sapiens, UniProt Q9NWZ3) (assay: IRAK-4 activity inhibition assay (Caliper)). Conditions: 37 μM ATP, 3.5 nM IRAK4.
T1 sequence (Q9NWZ3 1-460): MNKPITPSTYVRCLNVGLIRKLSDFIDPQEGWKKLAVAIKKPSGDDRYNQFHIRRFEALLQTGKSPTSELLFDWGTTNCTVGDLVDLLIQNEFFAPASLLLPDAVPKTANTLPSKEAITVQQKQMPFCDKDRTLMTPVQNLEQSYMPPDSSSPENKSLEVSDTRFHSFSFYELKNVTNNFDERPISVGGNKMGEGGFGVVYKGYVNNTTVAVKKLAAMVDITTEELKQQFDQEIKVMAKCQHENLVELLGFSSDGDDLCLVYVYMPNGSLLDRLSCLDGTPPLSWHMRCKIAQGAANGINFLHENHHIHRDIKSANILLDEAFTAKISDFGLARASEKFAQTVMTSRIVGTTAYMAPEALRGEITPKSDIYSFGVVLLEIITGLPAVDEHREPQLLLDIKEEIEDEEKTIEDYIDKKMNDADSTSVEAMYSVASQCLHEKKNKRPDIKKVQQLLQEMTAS
Type: biochemical
Description: A 1× kinase base buffer was prepared from 50 mM HEPES, pH 7.5 and 0.0015% Brij-35. A stop buffer was prepared from 100 mM HEPES, pH 7.5, 0.015% Brij-35, 0.2% Coating Reagent #3, and 50 mM EDTA.
Test compound was diluted to 50× of the final desired highest inhibitor concentration in reaction by 100% DMSO. 100 μl of this compound dilution was transferred to a well in a 96-well plate.
Test compound was serially diluted by transferring 30 μl to 60 μl of 100% DMSO in the next well and so forth for a total of 10 concentrations. 100 μl of 100% DMSO was added to two empty wells for no compound control and no enzyme control in the same 96-well plate.
A new 96-well plate was marked as intermediate plate. 5 μl of compound serial dilution was transferred from source plate to the corresponding wells of the intermediate plate. 45 μl of 1× kinase base buffer (KB buffer) was added to each well of the intermediate plate. The intermediate plate was placed for 10 min on a shaker.
5 μl of each well was transferred from the 96-well intermediate plate to a 384-well plate in duplicates. […] A2 of the 96-well plate is transferred to A3 and A4 of the 384-well plate, and so on.
IRAK4 and DTT in 1× kinase base buffer was added.
Assay plate already contained 5 μl of compound in 10% DMSO. Added 10 μl of 2.5× enzyme solution to each well of the 384-well assay plate, except no enzyme control wells. […] Added 10 μl of 1× kinase base buffer to no enzyme control wells in the assay plate. Incubated at room temperature for 10 min.
Added 10 μl of 2.5× peptide solution to each well of the 384-well assay plate. […] Incubated at 28° C. for 40 minutes. Added 25 μl of stop buffer to stop reaction. Collected data on Caliper.
Copied conversion % data from Caliper program. Converted conversion % values to percent inhibition values. Percent inhibition=(max−conversion %)/(max−min)*100, where “max” means the conversion % of DMSO control and “min” means the conversion % of no enzyme control.
The compound numbers correspond to the compound numbers in Table 1. […] “NA” stands for “not assayed.”

`CN(C)[C@H]1CC[C@H](Oc2ncnc3sc4c(c23)[C@H](CO)CC4)CC1` [Compound I-20, ((S)-4-(((1r,4S)-4-(dimethylamino)cyclohexyl)oxy)-6,7-dihydro-5H-cyclopenta[4,5]thieno[2,3-d]pyrimidin-5-yl)methanol] and `CN(C)[C@H]1CC[C@H](Oc2ncnc3sc4c(c23)[C@@H](CO)CC4)CC1` [Compound I-19, ((R)-4-(((1r,4R)-4-(dimethylamino)cyclohexyl)oxy)-6,7-dihydro-5H-cyclopenta[4,5]thieno[2,3-d]pyrimidin-5-yl)methanol] cannot be ordered by IC50: less than 5 µM for the first, less than 5 µM for the second.

`CN(C)[C@H]1CC[C@H](Nc2ncnc3sc4c(c23)[C@@H](CC(N)=O)CC4)CC1` [Compound I-99, 2-[(3R)-12-[[4-(dimethylamino)cyclohexyl]amino]-7-thia-9,11-diazatricyclo[6.4.0.0[2,6]]dodeca-1(12),2(6),8,10-tetraen-3-yl]acetamide] and `CN(C)[C@H]1CC[C@H](Nc2ncnc3sc4c(c23)C(CCO)CC4)CC1` (stereo partly drawn) [Compound I-12, 2-(4-(((1r,4r)-4-(dimethylamino)cyclohexyl)amino)-6,7-dihydro-5H-cyclopenta[4,5]thieno[2,3-d]pyrimidin-5-yl)ethanol] cannot be ordered by IC50: less than 5 µM for the first, less than 5 µM for the second.

Compared with `CN(CCO)C(=O)CC1CCc2sc3ncnc(N[C@H]4CC[C@H](N(C)C)CC4)c3c21` (stereo partly drawn) [Compound I-30, 2-(12-[[4-(dimethylamino)cyclohexyl]amino]-7-thia-9,11-diazatricyclo[6.4.0.0̂[2,6]]dodeca-1(8),2(6),9,11-tetraen-3-yl)-N-(2-hydroxyethyl)-N-methylacetamide], `CN(CCO)C(=O)C1CCc2sc3ncnc(N[C@H]4CC[C@H](N(C)C)CC4)c3c21` (stereo partly drawn) [Compound I-29, 12-[[4-(dimethylamino)cyclohexyl]amino]-N-(2-hydroxyethyl)-N-methyl-7-thia-9,11-diazatricyclo[6.4.0.0̂[2,6]]dodeca-1(12),2(6),8,10-tetraene-3-carboxamide] is higher in IC50: 20 to 50 µM for the first, greater than 50 µM for the second. The first is the more potent here.

`CC[C@H](C[C@H]1CCc2sc3ncnc(O[C@H]4CC[C@H](N(C)C)CC4)c3c21)OC` [Compound I-117, 4-[[(3R)-3-[(2R)-2-methoxybutyl]-7-thia-9,11-diazatricyclo[6.4.0.0[2,6]]dodeca-1(8),2(6),9,11-tetraen-12-yl]oxy]-N,N-dimethylcyclohexan-1-amine] and `CN(C)[C@H]1CC[C@H](Oc2ncnc3sc4c(c23)[C@@H](C[C@H](N)C(N)=O)CC4)CC1` [Compound I-160, (2S)-2-amino-3-[(3R)-12-[[4-(dimethylamino)cyclohexyl]oxy]-7-thia-9,11-diazatricyclo[6.4.0.0[2,6]]dodeca-1(8),2(6),9,11-tetraen-3-yl]propanamide] cannot be ordered by IC50: less than 5 µM for the first, less than 5 µM for the second.

`CN(C)[C@H]1CC[C@H](Oc2ncnc3sc4c(c23)CN(C(N)=O)CC4)CC1` [Compound I-201, 3-[[4-(dimethylamino)cyclohexyl]oxy]-8-thia-4,6, 12-triazatricyclo[7.4.0.0[2,7]]trideca-1(9),2,4,6-tetraene-12-carboxamide] and `CN(C)[C@H]1CC[C@H](Oc2ncnc3sc4c(c23)C[C@H](CC(N)=O)CC4)CC1` [Compound I-113, 2-[(12R)-3-[[4-(dimethylamino)cyclohexyl]oxy]-8-thia-4,6-diazatricyclo[7.4.0.0[2,7]]trideca-1(9),2(7),3,5-tetraen-12-yl]acetamide] cannot be ordered by IC50: less than 5 µM for the first, less than 5 µM for the second.

First: CN[C@H]1CC[C@H](Oc2ncnc3sc4c(c23)CN(C(C)=O)CC4)CC1 [Compound I-202, 1-(3-[[4-(methylamino)cyclohexyl]oxy]-8-thia-4,6,12-triazatricyclo[7.4.0.0[2,7]]trideca-1 (9),2,4,6-tetraen-12-yl)ethan-1-one]
Second: CNC(=O)N1Cc2sc3ncnc(O[C@H]4CC[C@H](N5CCOCC5)CC4)c3c2C1 [Compound I-200, N-methyl-12-[[4-(morpholin-4-yl)cyclohexyl]oxy]-7-thia-4,9, 11-triazatricyclo[6.4.0.0[2,6]]dodeca-1(8),9, 11-triene-4-carboxamide]
The IC50 of the first is higher: 5 to 20 µM for the first, less than 5 µM for the second. The second is the more potent here.

Compared with `CN(C)[C@H]1CC[C@H](Nc2ncnc3sc4c(c23)C(C(=O)O)CC4)CC1` (stereo partly drawn) [Compound I-5, 4-(((1s,4s)-4-(dimethylamino)cyclohexyl)amino)-6,7-dihydro-5H-cyclopenta[4,5]thieno[2,3-d]pyrimidine-5-carboxylic acid], `CN(C)[C@H]1CC[C@H](Nc2ncnc3sc4c(c23)C(C(=O)NCc2ccccc2)CC4)CC1` (stereo partly drawn) [Compound I-24, N-benzyl-12-[[4-(dimethylamino)cyclohexyl]amino]-7-thia-9,11-diazatricyclo[6.4.0.0̂[2,6]]dodeca-1(12),2(6),8,10-tetraene-3-carboxamide] is higher in IC50: 5 to 20 µM for the first, 20 to 50 µM for the second. The first is the more potent here.

`NC(=O)C(=O)C[C@H]1CCc2sc3ncnc(OC4CCC(N5CCOCC5)CC4)c3c21` (stereo partly drawn) [Compound I-213, 3-[(3R)-12-[[4-(morpholin-4-yl)cyclohexyl]oxy]-7-thia-9, 11-diazatricyclo[6.4.0.0[2,6]]dodeca-1(8),2(6),9, 11-tetraen-3-yl]-2-oxopropanamide] and `C[C@@H]1COCCN1[C@H]1CC[C@H](Oc2ncnc3sc4c(c23)[C@@H](CC(N)=O)CC4)CC1` [Compound I-227, 2-[(3R)-12-([4-[(3R)-3-methylmorpholin-4-yl]cyclohexyl]oxy)-7-thia-9,11-diazatricyclo[6.4.0.0[2,6]]dodeca-1(8),2(6),9, 11-tetraen-3-yl]acetamide] cannot be ordered by IC50: less than 5 µM for the first, less than 5 µM for the second.

`CN(CCF)[C@H]1CC[C@H](Oc2ncnc3sc4c(c23)[C@@H](CC(N)=O)CC4)CC1` [Compound I-125, 2-((R)-4-(((1r,4R)-4-((2-fluoroethyl)(methyl)amino)cyclohexyl)oxy)-6,7-dihydro-5H-cyclopenta[4,5]thieno[2,3-d]pyrimidin-5-yl)acetamide] and `COCCN(CCOC)[C@H]1CC[C@H](Oc2ncnc3sc4c(c23)[C@@H](CC(N)=O)CC4)CC1` [Compound I-134, 2-[(3R)-12-([4-[bis(2-methoxyethyl)amino]cyclohexyl]oxy)-7-thia-9,11-diazatricyclo[6.4.0.0[2,6]]dodeca-1(12),2(6),8,10-tetraen-3-yl]acetamide] cannot be ordered by IC50: less than 5 µM for the first, less than 5 µM for the second.

`CC[C@]1(N(C)C)CC[C@H](Oc2ncnc3sc4c(c23)[C@@H](C[C@@H](C)O)CC4)CC1` [Compound I-102, (2R)-1-[(3R)-12-[[4-(dimethylamino)-4-ethylcyclohexyl]oxy]-7-thia-9,11-diazatricyclo[6.4.0.0[2,6]]dodeca-1(12),2(6),8,10-tetraen-3-yl]propan-2-ol] and `CN(C)[C@H]1CC[C@H](Oc2ncnc3sc4c(c23)[C@@H](C[C@H](O)c2cc[nH]n2)CC4)CC1` [Compound I-96, (S)-2-((R)-4-(((1r,4R)-4-(dimethylamino)cyclohexyl)oxy)-6,7-dihydro-5H-cyclopenta[4,5]thieno[2,3-d]pyrimidin-5-yl)-1-(1H-pyrazol-3-yl)ethanol] cannot be ordered by IC50: less than 5 µM for the first, less than 5 µM for the second.

With `CN(C)[C@H]1CC[C@H](Oc2ncnc3sc4c(c23)C[C@@H](CCO)CC4)CC1` [Compound I-111, 2-[(12S)-3-[[4-(dimethylamino)cyclohexyl]oxy]-8-thia-4,6-diazatricyclo[7.4.0.0[2,7]]trideca-1(9),2(7),3,5-tetraen-12-yl]ethan-1-ol formate] the IC50 was less than 5 µM.
